pIC50: −log10 of the molar value.
Experiments:
carrageenan paw edema = test: Anti-inflammatory activity: carrageenan-induced hind paw edema; format: in vivo, Male Wistar rats; settings: 10 mg/kg, p.o.; carrageenan 1 h after dosing, volume measured 3 h later; 5 rats per group
Description: Male Wistar rats weighing 120 to 150 g which had been fasted for 24 hours were used in groups each consisting of 5 rats. In each group, the volumes of the right hind paw were measured by a volume differential meter (made by Ugo Basile Company), and each of the test compounds was suspended in an aqueous solution of 0.5% of carboxymethyl cellulose and 2.0% of Tween 80, and administered orally through a tube. After one hour from the administration, […] suspension of carrageenan in distilled water was subcutaneously injected into the plantar tissues of the right hind paw. Three hours later, the volumes of the right hind paw were again measured. The increase in volume of the right hind paw of each rat in each group (the volume of edema) was measured. The percent edema inhibition was calculated in accordance with the following equation, and the results are shown in Tale 1.

[1] = tested on: adjuvant-induced arthritis; test: Preventive effect on adjuvant-induced arthritis; format: in vivo, Sprague-Dawley strain female rats
Description: Sprague-Dawley strain female rats, 6 weeks old, were used. Killed and dried M. butyricum (Difco) were suspended (6 mg/ml) in light liquid paraffin, and the suspension was sterilized under pressure to form Freund's complete adjuvant. 0.1 ml of the Freund's complete adjuvant was injected subcutaneously into the right hind paws of the animals to induce arthritis. After the injection of the Freund's complete adjuvant, the test compound was orally administered once a day for 21 consecutive days including the day of injection. The volumes of the left and right hind paws were measured by using the device devised by Fujihira [Eiichi Fujihira: Oyo Yakuri 5, 169-182 (1971)], and the increases in volume from before the injection of the adjuvant was measured and used as an index of swelling. Changes in swelling after the stopping of drug administration were also examined. The animals were used in groups each consisting of 10 members.

stomach = test: Ulcerogenic activity; format: in vivo, male Wistar rats; settings: 300 mg/kg, p.o.; 4 hours after dosing; fasted rats
Description: The test compound was orally administered by the same way as in the test on anti-inflammatory activity to male Wistar rats weighing 120 to 150 g which had been fasted for 24 hours. Four hours later, they were killed with ether.

granuloma formation = test: Inhibitory effect on granuloma formation (filter paper implantation); format: in vivo, Wistar strain male rats; settings: Rattus norvegicus, po, 168 h; once a day for 7 days; p<0.001, n=7-8; read-out: dose significantly decreasing the dry weight of granuloma
Description: Wistar strain male rats were used. Under anesthesia with hexobarbital-Na (100 mg/kg, i.p.), the hair of the back of each rat was removed. Filter paper pieces prepared in tablet form (Toyo Filter Paper, No. 85K, 9 mm diameter) sterilized under pressure were implanted subcutaneously on the left and right sides of the back, and oily procaine penicillin G (a product of Banyu Pharmaceutical Co., Ltd.; 300,000 units/ml) was intramuscularly injected in an amount of 0.25 ml.
After the implantation of the filter paper pieces, the test compound was orally administered once a day for 7 consecutive days including the day of implantation. On the day next to the day of the final administration, the filter paper pieces and granuloma formed around them were excised, and dried at about 60° C. for 24 hours. Their weight was measured. The weight of the filter paper pieces was subtracted, and the balance was defined as the dry amount of glanuloma.

5-lipoxygenase = molecular target: T1, 5-lipoxygenase (Rattus norvegicus, UniProt P12527); test: 5-lipoxygenase inhibiting action (formation of 5-HETE and 5,12-diHETE) in white blood cells from rat pleural exudate; format: cell-based; settings: 14C arachidonic acid, A23187, 2 minutes, read-out: concentration inhibiting 50% of the formation of 5-HETE
T1 construct: endogenous in cells; host or cells: white blood cells from the pleural exudate of rats with carrageenan-induced pleurisy
T1 sequence (P12527 1-673): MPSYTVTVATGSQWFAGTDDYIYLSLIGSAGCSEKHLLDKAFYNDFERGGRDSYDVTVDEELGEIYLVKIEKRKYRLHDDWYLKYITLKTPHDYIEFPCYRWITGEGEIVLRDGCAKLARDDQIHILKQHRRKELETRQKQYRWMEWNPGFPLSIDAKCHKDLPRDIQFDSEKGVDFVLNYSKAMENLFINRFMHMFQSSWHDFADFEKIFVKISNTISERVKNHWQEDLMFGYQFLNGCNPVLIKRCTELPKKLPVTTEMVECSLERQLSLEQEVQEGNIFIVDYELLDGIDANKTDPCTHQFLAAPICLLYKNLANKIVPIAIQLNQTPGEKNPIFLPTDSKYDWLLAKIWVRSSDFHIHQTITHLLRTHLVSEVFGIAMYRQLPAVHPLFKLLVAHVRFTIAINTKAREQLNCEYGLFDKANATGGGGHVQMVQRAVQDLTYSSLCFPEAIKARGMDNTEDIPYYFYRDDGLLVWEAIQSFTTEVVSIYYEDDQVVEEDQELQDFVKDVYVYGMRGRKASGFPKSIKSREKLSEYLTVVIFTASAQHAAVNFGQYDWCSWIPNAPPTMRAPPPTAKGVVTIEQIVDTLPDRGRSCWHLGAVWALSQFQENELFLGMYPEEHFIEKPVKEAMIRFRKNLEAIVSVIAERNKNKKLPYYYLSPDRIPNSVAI
Description: (§1) The actions of the compounds of this invention to inhibit 5-lipoxygenase and cyclooxygenase activities were measured in accordance with the method of Siegel et al. [Prostaglandins, Vol. 21, page 123 (1981)].
(§2) The exudate was extracted from the pleural cavity of a rat with carrageenan-induced pleurisy. White blood cells from the exudate were suspended in 50 mM Tris-HCl buffer (pH 7.4) containing 100 mM sodium chloride and 1 mM calcium chloride. To a fixed amount of the white blood cell suspension were added a test compound, ^14 C arachidonic acid and a calcium ionophore (A23187), and the mixture was incubated for 2 minutes. […] The radioactivity of each of the fractions was measured by a liquid scintillation counter, and the percentage of the radioactivity of each fraction based on the total radioactivity was calculated (the ratio of formation). The inhibition ratio of the test compound against the synthesis ability of each fraction was determined by using the ratio of formation as an index.
(§3) The lipoxygenase activity was determined by using the formation of 5S-hydroxy-6,8,11,14-eicosatetraenoic acid (5-HETE) and 5S,12R-dihydroxy-6,8,10,14-eicosatetraenoic acid (5,12-diHETE) as indices. The cyclooxygenase activity was determined by using the formation of 12-hydroxyheptadecatrienoic acid (HHT) as an index. […]

cyclooxygenase = test: Cyclooxygenase inhibiting action (formation of HHT) in white blood cells from rat pleural exudate; format: cell-based; settings: 14C arachidonic acid, A23187, 2 minutes, read-out: concentration inhibiting 50% of the formation of HHT
Description: as §1, §2, §3

[2] = Pharmacological actions of previously disclosed compound

CC(C)(C)c1cc(C(=NN)c2ccccc2)cc(C(C)(C)C)c1O [D, 3,5-di-t-butyl-4-hydroxybenzophenone hydrazone]
Percent inhibition (edema) (carrageenan paw edema): 21.0%

CC(C)(C)c1cc(C(=NO)c2ccccc2)cc(C(C)(C)C)c1O [A, 3,5-di-t-butyl-4-hydroxybenzophenone oxime]
minimal effective dose ([1]; Rattus norvegicus, po, 504 h, once a day for 21 days, p<0.05, n=10, read-out: dose significantly inhibiting the development of adjuvant-induced arthritis): ≥ 3 mg/kg | rebound phenomenon in swelling after the stopping of drug administration ([1]; after 21 days of oral administration): No rebound phenomenon was noted | gastric trouble (stomach): no gastric trouble | minimal effective dose (granuloma formation): ≥ 3 mg/kg | pIC50 (5-lipoxygenase): 5.21 | pIC50 (cyclooxygenase): 5.90 | Percent inhibition (edema) (carrageenan paw edema): 26.7%

CON=C(c1ccccc1)c1cc(C(C)(C)C)c(O)c(C(C)(C)C)c1
pharmacological actions such as anti-inflammatory, analgesic or anti-rheumatic activity [2]: does not substantially show pharmacological actions

CC(=O)ON=C(c1ccccc1)c1cc(C(C)(C)C)c(O)c(C(C)(C)C)c1 [B, 3,5-di-t-butyl-4-hydroxybenzophenone O-acetyloxime]
Percent inhibition (edema) (carrageenan paw edema): 22.7%

CCC(=O)ON=C(c1ccccc1)c1cc(C(C)(C)C)c(O)c(C(C)(C)C)c1 [C, 3,5-di-t-butyl-4-hydroxybenzophenone O-propionyloxime]
Percent inhibition (edema) (carrageenan paw edema): 23.6%
